Like-named read-outs stand apart in the source and are kept apart here.
Experiments:
androgen receptor (AR) = target: T1, androgen receptor (AR) (Homo sapiens, UniProt P10275, T878A); test: Degradation activity on androgen receptor in LNCaP cells (AR ELISA); format: cell-based; settings: for Dmax: read-out: Max (maximum AR degradation rate)
T1 construct: host or cells: LNCaP human prostate cancer cells
T1 sequence (P10275 1-920 T878A): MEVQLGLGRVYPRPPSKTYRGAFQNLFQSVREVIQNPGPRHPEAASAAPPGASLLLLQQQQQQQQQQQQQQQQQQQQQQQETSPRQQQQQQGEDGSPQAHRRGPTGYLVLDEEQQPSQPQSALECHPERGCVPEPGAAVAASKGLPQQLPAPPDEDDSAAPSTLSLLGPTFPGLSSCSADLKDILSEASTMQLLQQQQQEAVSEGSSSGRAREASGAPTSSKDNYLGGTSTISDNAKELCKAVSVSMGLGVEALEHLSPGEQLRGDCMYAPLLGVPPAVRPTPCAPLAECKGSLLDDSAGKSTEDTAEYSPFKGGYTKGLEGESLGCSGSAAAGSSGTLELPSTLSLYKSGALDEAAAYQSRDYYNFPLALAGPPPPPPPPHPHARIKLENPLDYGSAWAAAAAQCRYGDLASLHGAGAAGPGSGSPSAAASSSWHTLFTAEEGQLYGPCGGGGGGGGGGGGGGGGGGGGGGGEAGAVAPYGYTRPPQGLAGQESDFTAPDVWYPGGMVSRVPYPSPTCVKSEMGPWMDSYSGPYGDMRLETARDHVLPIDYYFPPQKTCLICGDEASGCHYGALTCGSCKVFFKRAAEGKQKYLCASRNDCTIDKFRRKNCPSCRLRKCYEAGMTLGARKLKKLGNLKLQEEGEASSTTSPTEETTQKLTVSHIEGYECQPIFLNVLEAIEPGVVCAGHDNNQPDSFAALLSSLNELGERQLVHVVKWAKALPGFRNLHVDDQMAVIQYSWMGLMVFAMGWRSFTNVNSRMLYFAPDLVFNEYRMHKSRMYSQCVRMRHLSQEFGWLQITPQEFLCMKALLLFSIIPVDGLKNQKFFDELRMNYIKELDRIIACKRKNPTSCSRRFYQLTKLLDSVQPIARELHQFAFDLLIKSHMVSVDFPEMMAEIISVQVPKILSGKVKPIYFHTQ
Protocol: The plate was incubated in a 37° C., 5% CO2 cell incubator for three days. […] A blank control cell well containing 0.5% DMSO was set up. The plate was incubated in a 37° C., 5% CO2 cell incubator for 24 hours. […] The lysate was well mixed by pipetting up and down and then centrifuged at 4000 rpm at 4° C. for 10 minutes. […] The plate was sealed and incubated in a 37° C. incubator for 1 hour. […] The plate was sealed and then incubated in a 37° C. incubator for 30 minutes.

LNCaP cells = test: Inhibition of LNCaP proliferation (CellTiter-Glo); format: cell-based; settings: Homo sapiens, 144 h, 0.1 nM R1881, six days; for Emax: read-out: Max (maximum proliferation inhibition rate)
Protocol: The plate was incubated in a 37° C., 5% CO2 cell incubator for three days. […] A blank control cell well containing 0.5% DMSO and a cell-free vehicle control well were set up. The plate was incubated in a 37° C., 5% CO2 cell incubator for six days.

[1] = 0.1 nM R1881, 24 hours, read-out: LNCaP DC50

`C[C@H]1CC2(CCN(c3ccc(C(=O)N4CCC5(CC4)CC(N4CCN(c6ccc(N7CCC(=O)NC7=O)cc6)CC4)C5)cn3)CC2)CN1c1ccc(C#N)c(Cl)c1` [Example 33, (S)-2-Chloro-4-(8-(5-(2-(4-(4-(2,4-dioxotetrahydropyrimidin-1(2H)-yl)phenyl)piperazin-1-yl)-7-azaspiro[3.5]nonane-7-carbonyl)pyridin-2-yl)-3-methyl-2,8-diazaspiro[4.5]decan-2-yl]benzonitrile] was tested, and the DC50 (androgen receptor (AR); [1]) was 2.5 nM, the Dmax (androgen receptor (AR); 0.1 nM R1881, 24 hours) was 95% and the IC50 (LNCaP cells) was 3.5 nM. It also gave an Emax (LNCaP cells) of 58%.

`C[C@H]1CC2(CCN(c3ccc(C(=O)N4CCC5(CC4)CC(N4CCN(c6ccc(N7CCC(=O)NC7=O)cc6)CC4)C5)c(F)c3)CC2)CN1c1ccc(C#N)c(Cl)c1` [Example 31, (S)-2-Chloro-4-(8-(4-(2-(4-(4-(2,4-dioxotetrahydropyrimidin-1(2H)-yl)phenyl)piperazin-1-yl)-7-azaspiro[3.5]nonane-7-carbonyl)-3-fluorophenyl)-3-methyl-2,8-diazaspiro[4.5]decan-2-yl)benzonitrile] showed a DC50 (androgen receptor (AR); [1]) of 8.7 nM, a Dmax (androgen receptor (AR); 0.1 nM R1881, 24 hours) of 94% and an IC50 (LNCaP cells) of 12 nM. The Emax (LNCaP cells) was 57%.

In the case of `C[C@H]1CC2(CCN(c3ccc(C(=O)N4CCN(CC(=O)Nc5cccc(NC6CCC(=O)NC6=O)c5)CC4)cc3)CC2)CN1c1ccc(C#N)c(Cl)c1` (stereo partly drawn) [Example 42, 2-(4-(4-((S)-2-(3-Chloro-4-cyanophenyl)-3-methyl-2,8-diazaspiro[4.5]decan-8-yl)benzoyl)piperazin-1-yl)-N-(3-((2,6-dioxopiperidin-3-yl)amino)phenyl)acetamide], the DC50 (androgen receptor (AR); [1]) is reported as 4.2 nM, the Dmax (androgen receptor (AR); 0.1 nM R1881, 24 hours) is reported as 90% and the IC50 (LNCaP cells) is reported as 39 nM. The Emax (LNCaP cells) was 50%.

Compound `C[C@H]1CC2(CCN(c3ccc(C(=O)N4CCC(CN5CCC(c6ccc(NC7CCC(=O)NC7=O)cc6)CC5)CC4)cc3)CC2)CN1c1ccc(C#N)c(Cl)c1` (stereo partly drawn) [Example 26, 2-Chloro-4-((3S)-8-(4-(4-((4-(4-((2,6-dioxopiperidin-3-yl)amino)phenyl)piperidin-1-yl)methyl)piperidine-1-carbonyl)phenyl)-3-methyl-2,8-diazaspiro[4.5]decan-2-yl)benzonitrile] has a DC50 (androgen receptor (AR); [1]) of 2.5 nM, a Dmax (androgen receptor (AR); 0.1 nM R1881, 24 hours) of 94% and an IC50 (LNCaP cells) of 7.8 nM. For the same compound, the Emax (LNCaP cells) was 63%.

`C[C@H]1CC2(CCN(c3ccc(C(=O)N4CC(CN5CCC(c6cccc(NC7CCC(=O)NC7=O)c6)CC5)C4)nn3)CC2)CN1c1ccc(C#N)c(Cl)c1` (stereo partly drawn) [Example 21, 2-Chloro-4-((3S)-8-(6-(3-((4-(3-((2,6-dioxopiperidin-3-yl)amino)phenyl)piperidin-1-yl)methyl)azetidine-1-carbonyl)pyridazin-3-yl)-3-methyl-2,8-diazaspiro[4.5]decan-2-yl)benzonitrile] was tested, and the DC50 (androgen receptor (AR); [1]) was 0.5 nM, the Dmax (androgen receptor (AR); 0.1 nM R1881, 24 hours) was 94% and the IC50 (LNCaP cells) was 16 nM. It also gave an Emax (LNCaP cells) of 60%.

Compound `C[C@H]1CC2(CCN(c3ccc(C(=O)N4CCN(CC5CCN(c6cccc(NC7CCC(=O)NC7=O)c6)CC5)CC4)cc3)CC2)CN1c1ccc(C#N)c(Cl)c1` (stereo partly drawn) [Example 37, 2-Chloro-4-((3S)-8-(4-(4-((1-(3-((2,6-dioxopiperidin-3-yl)amino)phenyl)piperidin-4-yl)methyl)piperazine-1-carbonyl)phenyl)-3-methyl-2,8-diazaspiro[4.5]decan-2-yl)benzonitrile] has a DC50 (androgen receptor (AR); [1]) of 7.6 nM, a Dmax (androgen receptor (AR); 0.1 nM R1881, 24 hours) of 97% and an IC50 (LNCaP cells) of 125 nM. The Emax (LNCaP cells) was 73%.

Compound `Cc1c(N2CCC3(CCN(c4ccc(C(=O)N5CCC(CN6CCN(c7cccc(NC8CCC(=O)NC8=O)c7)CC6)CC5)cc4)CC3)C2)ccc(C#N)c1Cl` (racemic) [Example 38, (±)-2-Chloro-4-(8-(4-(4-((4-(3-((2,6-dioxopiperidin-3-yl)amino)phenyl)piperazin-1-yl)methyl)piperidine-1-carbonyl)phenyl)-2,8-diazaspiro[4.5]decan-2-yl)-3-methylbenzonitrile] has a DC50 (androgen receptor (AR); [1]) of 11.7 nM, a Dmax (androgen receptor (AR); 0.1 nM R1881, 24 hours) of 96% and an IC50 (LNCaP cells) of 49 nM. For the same compound, the Emax (LNCaP cells) was 60%.

`C[C@H]1CC2(CCN(c3ccc(C(=O)N4CCC5(CC4)CC(N4CCN(c6cccc(NC7CCC(=O)NC7=O)c6)CC4)C5)cc3F)CC2)CN1c1ccc(C#N)c(Cl)c1` (stereo partly drawn) [Example 36, 2-Chloro-4-((3S)-8-(4-(2-(4-(3-((2,6-dioxopiperidin-3-yl)amino)phenyl)piperazin-1-yl)-7-azaspiro[3.5]nonane-7-carbonyl)-2-fluorophenyl)-3-methyl-2,8-diazaspiro[4.5]decan-2-yl)benzonitrile] showed a DC50 (androgen receptor (AR); [1]) of 5.3 nM, a Dmax (androgen receptor (AR); 0.1 nM R1881, 24 hours) of 97% and an IC50 (LNCaP cells) of 35 nM. For the same compound, the Emax (LNCaP cells) was 57%.

`C[C@H]1CC2(CCN(c3ccc(C(=O)N4CCC(CN5CCN(c6cccc(NC7CCC(=O)NC7=O)c6)CC5)CC4)nn3)CC2)CN1c1ccc(C#N)c(Cl)c1` (stereo partly drawn) [Example 13, 2-Chloro-4-((3S)-8-(6-(4-((4-(3-((2,6-dioxopiperidin-3-yl)amino)phenyl)piperazin-1-yl)methyl)piperidine-1-carbonyl)pyridazin-3-yl)-3-methyl-2,8-diazaspiro[4.5]decan-2-yl)benzonitrile] gave a DC50 (androgen receptor (AR); [1]) of 0.5 nM, a Dmax (androgen receptor (AR); 0.1 nM R1881, 24 hours) of 96% and an IC50 (LNCaP cells) of 106 nM. It also gave an Emax (LNCaP cells) of 56%.

In the case of `C[C@H]1CC2(CCN(c3ccc(C(=O)N4CCC(CN5CCN(c6ccc(C(=O)NC7CCC(=O)NC7=O)c(F)c6)CC5)CC4)cc3)CC2)CN1c1ccc(C#N)c(Cl)c1` (stereo partly drawn) [Example 3, 4-(4-((1-(4-((S)-2-(3-Chloro-4-cyanophenyl)-3-methyl-2,8-diazaspiro[4.5]decan-8-yl)benzoyl)piperidin-4-yl)methyl)piperazin-1-yl)-N-(2,6-dioxopiperidin-3-yl)-2-fluorobenzamide], the DC50 (androgen receptor (AR); [1]) is reported as 22.1 nM, the Dmax (androgen receptor (AR); 0.1 nM R1881, 24 hours) is reported as 89% and the IC50 (LNCaP cells) is reported as 286 nM. For the same compound, the Emax (LNCaP cells) was 60%.

For `C[C@H]1CC2(CCN(c3ccc(C(=O)N4CC(CN5CCN(c6cccc(NC7CCC(=O)NC7=O)c6)CC5)C4)cc3)CC2)CN1c1ccc(C#N)c(Cl)c1` (stereo partly drawn) [Example 14, 2-Chloro-4-((3S)-8-(4-(3-((4-(3-((2,6-dioxopiperidin-3-yl)amino)phenyl)piperazin-1-yl)methyl)azetidine-1-carbonyl)phenyl)-3-methyl-2,8-diazaspiro[4.5]decan-2-yl)benzonitrile], the DC50 (androgen receptor (AR); [1]) was 1.9 nM, the Dmax (androgen receptor (AR); 0.1 nM R1881, 24 hours) was 96% and the IC50 (LNCaP cells) was 57 nM. It also gave an Emax (LNCaP cells) of 69%.

`C[C@H]1CC2(CCN(c3ccc(C(=O)N4CCC(CN5CCN(c6ccc(NC7CCC(=O)NC7=O)cc6)CC5)CC4)cc3)CC2)CN1c1ccc(C#N)c(Cl)c1` (stereo partly drawn) [Example 25, 2-Chloro-4-((3S)-8-(4-(4-((4-(4-((2,6-dioxopiperidin-3-yl)amino)phenyl)piperazin-1-yl)methyl)piperidine-1-carbonyl)phenyl)-3-methyl-2,8-diazaspiro[4.5]decan-2-yl)benzonitrile] showed a DC50 (androgen receptor (AR); [1]) of 1.8 nM, a Dmax (androgen receptor (AR); 0.1 nM R1881, 24 hours) of 96% and an IC50 (LNCaP cells) of 24 nM. The Emax (LNCaP cells) was 60%.

For `C[C@H]1CC2(CCN(c3ccc(C(=O)N4CCC(CN5CCN(c6cccc(NC7CCC(=O)NC7=O)c6)CC5)CC4)c(F)c3)CC2)CN1c1ccc(C#N)c(Cl)c1` (stereo partly drawn) [Example 16, 2-Chloro-4-((3S)-8-(4-(4-((4-(3-((2,6-dioxopiperidin-3-yl)amino)phenyl)piperazin-1-yl)methyl)piperidine-1-carbonyl)-3-fluorophenyl)-3-methyl-2,8-diazaspiro[4.5]decan-2-yl)benzonitrile], the Dmax (androgen receptor (AR); 0.1 nM R1881, 24 hours) was 97%, the DC50 (androgen receptor (AR); read-out: LNCaP DC50, 0.1 nM R1881, 24 hours) was 3.9 nM and the IC50 (LNCaP cells) was 84 nM. It also gave an Emax (LNCaP cells) of 70%.
